Assay results taken from US20240327334A1, “Covalent Inhibitors As Antiviral Agents” (Enanta Pharmaceuticals, Inc., priority 2022, published 2024).

What was measured:
SARS-CoV-2 replicon = assay: microbe, parasite or virus in culture; format: cell-based; settings: Severe acute respiratory syndrome coronavirus 2, Huh-7
[1] = biological target: SARS-CoV-2 Papain-like (PLpro) protease (Severe acute respiratory syndrome coronavirus 2, UniProt P0DTD1); assay: SARS-CoV-2 Papain-like (PLpro) protease biochemical enzyme inhibition assay (ubiquitin-fluorophore substrate, Ub-R110); settings: Ub-R110 substrate; run in duplicate; read-out: PLpro IC50

Compound | EC50 (SARS-CoV-2 replicon) | IC50 [1]
C[C@@H](C#Cc1ncccc1CC#N)NC(=O)C(=O)NCc1ccccc1C(=O)NC1(c2ccc3nn(C)cc3c2)CC1 [Example 209] | < 1000 nM | < 100 nM
COc1cccnc1C#CCNC(=O)C(=O)NCc1ccccc1C(=O)NC1(c2cc(F)cc(-c3cn(C)nc3C)c2)CC1 [Example 258] | < 1000 nM | < 100 nM
O=C(NCC#Cc1nccs1)C(=O)NCc1ccccc1C(=O)NC1(c2cc(Cl)cc(-c3cc4ccccc4s3)c2)CC1 [Example 443] | < 1000 nM | < 100 nM
COc1ccc(C2(NC(=O)c3ccccc3CNC(=O)C(=O)NCC#N)CC2)cc1Br [Example 229] | 1000 to 10000 nM | < 100 nM
CC[C@@H](C#Cc1ncc(F)cn1)NC(=O)C(=O)NCc1ccccc1C(=O)NC1(c2ccc3nn(C)cc3c2)CC1 [Example 213] | < 1000 nM | < 100 nM
C#CCNC(=O)C(=O)NCc1ccccc1C(=O)NC1(c2cc(-c3c(C)n[nH]c3C)cc(C(F)(F)F)c2)CC1 [Example 477] | < 1000 nM | < 100 nM
O=C(NCC#Cc1nccs1)C(=O)NCc1ccccc1C(=O)NC1(c2cc(F)cc(-c3cnn(C4COC4)c3)c2)CC1 [Example 253] | < 1000 nM | < 100 nM
O=C(/C=C/CNC(=O)C(=O)NCc1ccccc1C(=O)NC1(c2cccc3ccccc23)CC1)Nc1ccccc1 [Example 561] | 1000 to 10000 nM | 100 to 1000 nM
CS(=O)(=O)n1cc(-c2cc(C3(NC(=O)c4ccccc4CNC(=O)C(=O)NCC#N)CC3)c3ccccc3c2)cn1 [Example 356] | 1000 to 10000 nM | < 100 nM
C[C@@H](NC(=O)c1ccccc1CNC(=O)C(=O)NCC#N)c1cc(-c2cnn(C3CC3)c2)cc(C(F)(F)F)c1 [Example 458] | < 1000 nM | < 100 nM
C#CCNC(=O)C(=O)NCc1ccccc1C(=O)NC1(c2ccc3nn(C)cc3c2)CC1 [Example 338] | < 1000 nM | < 100 nM
Cc1n[nH]cc1-c1cc(C2(NC(=O)c3ccccc3CNC(=O)C(=O)NCC#N)CC2)c2ccccc2c1 [Example 284] | < 1000 nM | < 100 nM
CC(C)[C@@H](C#Cc1nccs1)NC(=O)C(=O)NCc1ccccc1C(=O)NC1(c2ccc3nn(C)cc3c2)CC1 [Example 97] | < 1000 nM | 100 to 1000 nM
C#CCNC(=O)C(=O)NCc1ccccc1C(=O)NC1(c2cc(Cl)cc(-c3nnc(C)o3)c2)CC1 [Example 484] | < 1000 nM | < 100 nM
O=C(NCC#Cc1cncnc1)C(=O)NCc1ccccc1C(=O)NC1(c2cccc3ccccc23)CC1 [Example 158] | < 1000 nM | < 100 nM
N#CCNC(=O)C(=O)NCc1ccccc1C(=O)NC1(c2cc(-c3cnn(C(F)F)c3)cc3ccccc23)CC1 [Example 285] | < 1000 nM | < 100 nM
Cn1cc2cc(C3(NC(=O)c4ccccc4CNC(=O)C(=O)NCC#Cc4ccccc4C#N)CC3)ccc2n1 [Example 104] | < 1000 nM | < 100 nM
O=C(/C=C/CNC(=O)C(=O)NCc1ccccc1C(=O)NC1(c2cccc3ccccc23)CC1)NC1(C(F)(F)F)CC1 [Example 575] | > 10000 nM | 100 to 1000 nM
Cn1cc2cc(C3(NC(=O)c4ccccc4CNC(=O)C(=O)NCC#Cc4ncccc4Cl)CC3)ccc2n1 [Example 269] | < 1000 nM | < 100 nM
N#CN1CCC(F)(C(=O)NCc2ccccc2C(=O)NC2(c3cc(Br)cc4ccccc34)CC2)C1 (stereo not shown) [Example 329] | < 1000 nM | < 100 nM
COC(=O)Cn1cc(-c2cc(C3(NC(=O)c4ccccc4CNC(=O)C(=O)NCC#N)CC3)c3ccccc3c2)nn1 [Example 426] | 1000 to 10000 nM | < 100 nM
N#CCNC(=O)C(=O)NCc1ccccc1C(=O)NC1(c2cc(-c3cnn(C4CC4)c3)nc3c2ccn3C2CC2)CC1 [Example 413] | < 1000 nM | < 100 nM
COC(=O)/C=C/CNC(=O)C(=O)NNc1ccccc1C(=O)NC1(c2cccc3ccccc23)CC1 [Example 576] | < 1000 nM | < 100 nM
O=C(NCC#Cc1ncccc1Cl)C(=O)NCc1ccccc1C(=O)NC1(c2cc(F)cc(-c3cnn(C4CC4)c3)c2)CC1 [Example 263] | < 1000 nM | < 100 nM
C#CCNC(=O)C(=O)NCc1ccccc1C(=O)NC1(c2cc(Cl)cc(-c3cnn(C4CC4)c3)c2)CC1 [Example 453] | < 1000 nM | < 100 nM
O=C(NCC#Cc1nccs1)C(=O)NCc1ccccc1C(=O)NC1(c2cccc3ccccc23)CC1 [Example 160] | < 1000 nM | < 100 nM
C#CCNC(=O)C(=O)NCc1ccccc1C(=O)NC1(c2ccc(OC)c(-c3cnn(C4CC4)c3)c2)CC1 [Example 245] | < 1000 nM | < 100 nM
COCc1ccc(-c2cc(C3(NC(=O)c4ccccc4CNC(=O)C(=O)NCC#N)CC3)c3ccccc3c2)s1 [Example 352] | < 1000 nM | < 100 nM
CC(C)(O)CCc1cc(C2(NC(=O)c3ccccc3CNC(=O)C(=O)NCC#N)CC2)c2ccccc2c1 [Example 424] | 1000 to 10000 nM | < 100 nM
